tested on: recombinant rabies virus 1088 strain expressing Gaussia Luciferase (GLuc) (1088/GLuc); assay type: cell-based; conditions: read-out: Anti-rabies activity

| Structure (SMILES) | IC50 [µM] |
| --- | --- |
| CCCCCCNC(=O)[C@@]12C[C@@H]3CN(Cc4ccccc4)[C@@H]([C@@H]3CN1)[C@H]2CC(C)C (relative stereo) [IF-560] | < 5 |
| O=C(NCc1ccc(F)cc1)[C@@]12C[C@@H]3CN(Cc4ccccc4)[C@@H]([C@@H]3CN1)[C@H]2Cc1ccccc1 (relative stereo) [IF-561] | < 5 |
| O=C(NCc1ccc(O)cc1)[C@@]12C[C@@H]3CN(Cc4ccccc4)[C@@H]([C@@H]3CN1)[C@H]2CCc1ccccc1 (relative stereo) [IF-565] | < 5 |
| CC(C)CN1C[C@H]2C[C@]3(C(=O)NCCc4ccccc4)NC[C@H]2[C@H]1[C@H]3Cc1ccc(O)cc1 (relative stereo) [IF-567] | 10 to 30 |
| CCCCCCNC(=O)[C@@]12C[C@@H]3CN(CC(C)C)[C@@H]([C@@H]3CN1)[C@H]2CC(C)C (relative stereo) [IF-569] | 10 to 30 |
| CC(C)CN1C[C@H]2C[C@]3(C(=O)NCc4ccc(O)cc4)NC[C@H]2[C@H]1[C@H]3CCc1ccccc1 (relative stereo) [IF-576] | 10 to 30 |
| CC(C)C[C@@H]1[C@@H]2[C@@H]3CN[C@@]1(C(=O)NCc1cccc4ccccc14)C[C@@H]3CN2Cc1ccc(O)cc1 (relative stereo) [IF-578] | < 5 |
| O=C(NCCc1ccccc1)[C@@]12C[C@@H]3CN(Cc4ccc(O)cc4)[C@@H]([C@@H]3CN1)[C@H]2Cc1cccc2ccccc12 (relative stereo) [IF-580] | 10 to 30 |
| CCCCCCNC(=O)[C@@]12C[C@@H]3CN(CCC(C)C)[C@@H]([C@@H]3CN1)[C@H]2Cc1ccc(O)cc1 (relative stereo) [IF-583] | < 5 |
| CC(C)CCNC(=O)[C@@]12C[C@@H]3CN(Cc4ccc(F)cc4)[C@@H]([C@@H]3CN1)[C@H]2Cc1ccccc1 (relative stereo) [IF-584] | < 5 |
| CC(C)CCNC(=O)[C@@]12C[C@@H]3CN(Cc4ccc(F)cc4)[C@@H]([C@@H]3CN1)[C@H]2CC(C)C (relative stereo) [IF-585] | < 5 |
| O=C(NCCc1ccccc1)[C@@]12C[C@@H]3CN(Cc4ccc(F)cc4)[C@@H]([C@@H]3CN1)[C@H]2Cc1ccccc1 (relative stereo) [IF-586] | 10 to 30 |
| CC(C)NC(=O)[C@@]12C[C@@H]3CN(Cc4cccc5ccccc45)[C@@H]([C@@H]3CN1)[C@H]2Cc1cccc2ccccc12 (relative stereo) [IF-596] | 10 to 30 |
| CCCCCCNC(=O)[C@@]12C[C@@H]3CN(CCC(C)C)[C@@H]([C@@H]3CN1)[C@H]2Cc1ccccc1 (relative stereo) [IF-599] | 10 to 30 |
| CCCCCCNC(=O)[C@@]12C[C@@H]3CN(CCc4ccccc4)[C@@H]([C@@H]3CN1)[C@H]2Cc1ccccc1 (relative stereo) [IF-602] | 10 to 30 |
| O=C(NCCO)[C@@]12C[C@@H]3CN(Cc4cccc5ccccc45)[C@@H]([C@@H]3CN1)[C@H]2Cc1ccccc1 (relative stereo) [IF-603] | 10 to 30 |
| CC(C)C[C@@H]1[C@@H]2[C@@H]3CN[C@@]1(C(=O)NCCO)C[C@@H]3CN2Cc1cccc2ccccc12 (relative stereo) [IF-604] | 10 to 30 |
| CC(C)C[C@@H]1[C@@H]2[C@@H]3CN[C@@]1(C(=O)NCCO)C[C@@H]3CN2CC1CCCCC1 (relative stereo) [IF-606] | 10 to 30 |
| O=C(NCCc1ccccc1)[C@@]12C[C@@H]3CN(CCO)[C@@H]([C@@H]3CN1)[C@H]2Cc1cccc2ccccc12 (relative stereo) [IF-610] | 10 to 30 |
| CC(C)CCN1C[C@H]2C[C@]3(C(=O)NCCO)NC[C@H]2[C@H]1[C@H]3Cc1cccc2ccccc12 (relative stereo) [IF-611] | 10 to 30 |
| O=C(NCCO)[C@@]12C[C@@H]3CN(CCc4ccccc4)[C@@H]([C@@H]3CN1)[C@H]2Cc1cccc2ccccc12 (relative stereo) [IF-612] | 10 to 30 |

| Structure (SMILES) | IC50 [µM] |
| --- | --- |
| CC(C)CC[C@@H]1[C@@H]2[C@@H]3CN[C@@]1(C(=O)NCCO)C[C@@H]3CN2Cc1cccc2ccccc12 (relative stereo) [IF-613] | 10 to 30 |
| O=C(NCCO)[C@@]12C[C@@H]3CN(Cc4cccc5ccccc45)[C@@H]([C@@H]3CN1)[C@H]2Cc1cccc2ccccc12 (relative stereo) [IF-614] | 10 to 30 |
| O=C(NCCO)[C@@]12C[C@@H]3CN(CC4CCCCC4)[C@@H]([C@@H]3CN1)[C@H]2Cc1cccc2ccccc12 (relative stereo) [IF-619] | 10 to 30 |
| O=C(NCCO)[C@@]12C[C@@H]3CN(Cc4ccc(F)cc4)[C@@H]([C@@H]3CN1)[C@H]2Cc1cccc2ccccc12 (relative stereo) [IF-620] | < 5 |
| O=C(NCCO)[C@@]12C[C@@H]3CN(Cc4ccccc4)[C@@H]([C@@H]3CN1)[C@H]2Cc1cccc2ccccc12 (relative stereo) [IF-624] | 10 to 30 |
| CC(C)CCN1C[C@H]2C[C@]3(C(=O)NCC(C)C)NC[C@H]2[C@H]1[C@H]3CCc1ccccc1 (relative stereo) [IF-635] | 10 to 30 |
| CC(C)C[C@@H]1[C@@H]2[C@@H]3CN[C@@]1(C(=O)NCc1ccccc1)C[C@@H]3CN2CCc1ccccc1 (relative stereo) [IF-639] | < 5 |
| O=C(NCc1ccccc1)[C@@]12C[C@@H]3CN(CCc4ccccc4)[C@@H]([C@@H]3CN1)[C@H]2Cc1ccc(O)cc1 (relative stereo) [IF-640] | 10 to 30 |
| CC(C)CNC(=O)[C@@]12C[C@@H]3CN(CCc4ccccc4)[C@@H]([C@@H]3CN1)[C@H]2Cc1ccccc1 (relative stereo) [IF-641] | < 5 |
| CC(C)C[C@@H]1[C@@H]2[C@@H]3CN[C@@]1(C(=O)NCc1ccccc1)C[C@@H]3CN2CC1CCCCC1 (relative stereo) [IF-644] | < 5 |
| O=C(NCc1ccccc1)[C@@]12C[C@@H]3CN(CC4CCCCC4)[C@@H]([C@@H]3CN1)[C@H]2Cc1ccc(O)cc1 (relative stereo) [IF-645] | 10 to 30 |
| CC(C)CNC(=O)[C@@]12C[C@@H]3CN(CC4CCCCC4)[C@@H]([C@@H]3CN1)[C@H]2Cc1cccc2ccccc12 (relative stereo) [IF-646] | < 5 |
| O=C(NCc1ccccc1)[C@@]12C[C@@H]3CN(Cc4ccc(F)cc4)[C@@H]([C@@H]3CN1)[C@H]2Cc1ccccc1 (relative stereo) [IF-649] | < 5 |
| CC(C)C[C@@H]1[C@@H]2[C@@H]3CN[C@@]1(C(=O)NCc1ccccc1)C[C@@H]3CN2Cc1ccc(F)cc1 (relative stereo) [IF-650] | < 5 |
| CC(C)CNC(=O)[C@@]12C[C@@H]3CN(Cc4ccc(F)cc4)[C@@H]([C@@H]3CN1)[C@H]2CCc1ccccc1 (relative stereo) [IF-652] | < 5 |
| CC(C)CNC(=O)[C@@]12C[C@@H]3CN(Cc4ccc(F)cc4)[C@@H]([C@@H]3CN1)[C@H]2Cc1ccccc1 (relative stereo) [IF-653] | 10 to 30 |
| CC(C)CNC(=O)[C@@]12C[C@@H]3CN(Cc4ccc(F)cc4)[C@@H]([C@@H]3CN1)[C@H]2CC(C)C (relative stereo) [IF-654] | < 5 |
| CC(C)CCNC(=O)[C@@]12C[C@@H]3CN(CCO)[C@@H]([C@@H]3CN1)[C@H]2Cc1ccccc1 (relative stereo) [IF-656] | 10 to 30 |
| CC(C)CCNC(=O)[C@@]12C[C@@H]3CN(CCc4ccccc4)[C@@H]([C@@H]3CN1)[C@H]2CC(C)C (relative stereo) [IF-657] | < 5 |
| CC(C)CCNC(=O)[C@@]12C[C@@H]3CN(CC4CCCCC4)[C@@H]([C@@H]3CN1)[C@H]2Cc1ccccc1 (relative stereo) [IF-658] | < 5 |
